Experimental data taken from patent US20240368163A1, “COMPOUNDS AND METHODS FOR MODULATING SPLICING” (REMIX THERAPEUTICS INC., priority 2021, published 2024).
pIC50: −log10 of the molar value. Like-named read-outs stand apart in the source and are kept apart here.

What was measured:
Type in all cases: cell-based, human
MYB [1] = experiment: Splicing RT-qPCR assay, MYB mRNA canonical junction (CJ) and alternative junction (AJ); settings: Homo sapiens; for AC50: increase in AJ mRNA
Procedure, shortened: (§1)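 A673 or K562 cells were treated 24 h at 37 °C with an 11-point 3-fold dilution series (top 10 uM final, DMSO ≤0.25%). Lysates underwent one-step RT-qPCR for canonical (CJ) and alternative (AJ) junctions; Ct normalized to GAPDH, GUSB or PPIA and DMSO control via 2^(−ΔΔCt), expressed as percentage response.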

Target C [2] = experiment: HiBiT protein abundance assay, Target C; settings: Homo sapiens, K562, 24 h, modified K562 cells
Procedure, shortened: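 Luminescence from lytic HiBiT detection, taken after 24 h compound exposure at 37 °C, reports tagged protein abundance in knock-in cells seeded at 10000 cells/well. Doses spanned 10 points, 3-fold steps, top 10 μM final. A four-parameter logistic fit gave the 50% abundance concentration (IC50).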

HTT [3] = experiment: Splicing RT-qPCR assay, HTT mRNA canonical junction (CJ) and alternative junction (AJ); settings: Homo sapiens; for AC50: increase in AJ mRNA
Procedure, shortened: as §1

HTT [4] = experiment: HiBiT protein abundance assay, HTT; settings: Homo sapiens, K562, 24 h, modified K562 cells
Procedure, shortened: (§2)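 HiBiT knock-in K562, 10000 cells/well, 24 h cpd at 37 °C/5% CO2; 10-pt 3-fold series from 10 μM final; DMSO ≤0.25%. Lytic detection, luminescence read. 4PL fit → IC50 vs DMSO control; unmodified K562 = baseline.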

MYB [5] = experiment: HiBiT protein abundance assay, MYB; settings: Homo sapiens, K562, 24 h, modified K562 cells
Procedure, shortened: as §2

SMN2 = experiment: Splicing RT-qPCR panel, SMN2 canonical junction (CJ) mRNA; settings: Homo sapiens, read-out: SMN2 IC50 (decrease in CJ mRNA levels)
Procedure, shortened: as §1

Target C [6] = experiment: Splicing RT-qPCR panel, Target C canonical junction (CJ) mRNA; settings: Homo sapiens, read-out: Target C IC50 (decrease in CJ mRNA levels)
Procedure, shortened: as §1

[7] = 24 h, decrease in CJ mRNA, A673 or K562 cells, 24 hours treatment, RT-qPCR, read-out: MYB CJ IC50
[8] = 24 h, A673 or K562 cells, 24 hours treatment, RT-qPCR
[9] = RT-qPCR panel, canonical junction mRNA, compound concentration having 50% response in CJ decrease, read-out: MYB IC50 (decrease in CJ mRNA levels)
[10] = 24 h, decrease in CJ mRNA, A673 or K562 cells, 24 hours treatment, RT-qPCR, read-out: HTT CJ IC50
[11] = RT-qPCR panel, canonical junction mRNA, compound concentration having 50% response in CJ decrease, read-out: HTT IC50 (decrease in CJ mRNA levels)
[12] = RT-qPCR panel, canonical junction mRNA, compound concentration having 50% response in CJ decrease
[13] = gene panel, CJ qPCR, protocol of Example 142, read-out: MYB IC50 (decrease in CJ mRNA levels)
[14] = gene panel, CJ qPCR, protocol of Example 142, read-out: HTT IC50 (decrease in CJ mRNA levels)
[15] = gene panel, CJ qPCR, protocol of Example 142

Structure (SMILES) | pIC50 (MYB [1]; [7]) | AC50 (MYB [1]; [8]) [nM] | pIC50 (MYB [1]; [9]) | pIC50 (Target C [2]; Table 13A) | pIC50 (HTT [3]; [10]) | AC50 (HTT [3]; [8]) [nM] | pIC50 (HTT [3]; [11]) | pIC50 (HTT [4]; Table 13A) | pIC50 (MYB [5]; Table 13A) | pIC50 (SMN2; [12]) | pIC50 (Target C [6]; [12]) | pIC50 (MYB [1]; [13]) | pIC50 (Target C [2]; Table 13B) | pIC50 (HTT [3]; [14]) | pIC50 (HTT [4]; Table 13B) | pIC50 (MYB [5]; Table 13B) | pIC50 (SMN2; [15]) | pIC50 (Target C [6]; [15])
CC(C)(C)NC1CCN(c2ccc(-c3ccc(-c4cn[nH]c4)c4cn[nH]c34)nn2)C1 (stereo not shown) [Compound 305] | 5.00 to 6.00 | 1000 to 10000 | 5.00 to 6.00 | 5.00 to 6.00 | 6.00 to 7.00 | 100 to 1000 | 6.00 to 7.00 | 6.00 to 7.00 | 6.00 to 7.00 | > 7.00 | 5.00 to 6.00 |  |  |  |  |  |  | 
Cn1cc(-c2c(F)cc(-c3ccc(NC4CCNCC4)nn3)c3[nH]ncc23)cn1 [Compound 338] | 5.00 to 6.00 | 1000 to 10000 | 5.00 to 6.00 | 5.00 to 6.00 | 5.00 to 6.00 | 1000 to 10000 | 5.00 to 6.00 | 5.00 to 6.00 | 5.00 to 6.00 | 6.00 to 7.00 | < 5.00 |  |  |  |  |  |  | 
CCN(c1ccc(-c2ccc(-c3cn[nH]c3)c3cn[nH]c23)nn1)C1CC(C)(C)NC(C)(C)C1 [Compound 293] | 5.00 to 6.00 | > 10000 | 5.00 to 6.00 | 5.00 to 6.00 | 5.00 to 6.00 | 1000 to 10000 | 5.00 to 6.00 | 5.00 to 6.00 | 5.00 to 6.00 | 6.00 to 7.00 | < 5.00 |  |  |  |  |  |  | 
Cn1ncc(-c2ccc(-c3ccc(O[C@@H]4C[C@H]5CC[C@@H](C4)N5)nn3)c3[nH]ncc23)n1 [Compound 321, 7-{6-[(1R,3S,5S)-8-azabicyclo[3.2.1]octan-3-yloxy]pyridazin-3-yl}-4-(2-methyl-1,2,3-triazol-4-yl)-1H-indazole] | 6.00 to 7.00 | 100 to 1000 | 6.00 to 7.00 | 6.00 to 7.00 | 6.00 to 7.00 | 100 to 1000 | 6.00 to 7.00 | 6.00 to 7.00 | 6.00 to 7.00 | > 7.00 | 6.00 to 7.00 |  |  |  |  |  |  | 
COc1nc(-c2ccc(N(C)[C@@H]3C[C@H]4CC[C@@H](C3)N4)cn2)ccc1-c1cn[nH]c1 [Compound 978] |  |  |  |  |  |  |  |  |  |  |  | < 5.00 | < 5.00 | < 5.00 | 5.00 to 6.00 | 5.00 to 6.00 | < 5.00 | < 5.00
FC1(F)C[C@@H]2C[C@@H](Oc3ccc(-c4ccc(-c5cn[nH]c5)c5cn[nH]c45)nn3)C[C@H]1N2 (stereo in doubt) [Compound 373, 7-[6-({6,6-difluoro-8-azabicyclo[3.2.1]octan-3-yl}oxy)pyridazin-3-yl]-4-(1H-pyrazol-4-yl)-1H-indazole] | 5.00 to 6.00 | 100 to 1000 | 5.00 to 6.00 | 5.00 to 6.00 | 6.00 to 7.00 | 100 to 1000 | 6.00 to 7.00 | 6.00 to 7.00 | 5.00 to 6.00 | 6.00 to 7.00 | 5.00 to 6.00 |  |  |  |  |  |  | 
COc1nc(-c2ccc(N(C)[C@@H]3C[C@H]4CC[C@@H](C3)N4)nn2)ccc1-c1cnc(C)cn1 [Compound 950] |  |  |  |  |  |  |  |  |  |  |  | 6.00 to 7.00 | 6.00 to 7.00 | 6.00 to 7.00 | 6.00 to 7.00 | 6.00 to 7.00 | > 7.00 | 5.00 to 6.00
COc1nc(-c2ccc(NC3CCNCC3)nc2)ccc1-c1cnn(C)c1 [Compound 986] |  |  |  |  |  |  |  |  |  |  |  | 5.00 to 6.00 | 5.00 to 6.00 | 5.00 to 6.00 | 6.00 to 7.00 | 5.00 to 6.00 | 6.00 to 7.00 | 5.00 to 6.00
CC(C)(C)NC1CCN(c2ccc(-c3ccc(-n4cccn4)c4cn[nH]c34)nn2)C1 (stereo not shown) [Compound 310] | 5.00 to 6.00 | > 10000 | 5.00 to 6.00 | 5.00 to 6.00 | 5.00 to 6.00 | 1000 to 10000 | 5.00 to 6.00 | 5.00 to 6.00 | 5.00 to 6.00 | 6.00 to 7.00 | < 5.00 |  |  |  |  |  |  | 
CN(c1ccc(-c2ccc(-c3cn[nH]c3)c(Cl)n2)nn1)[C@@H]1C[C@H]2CC[C@@H](C1)N2 [Compound 923] |  |  |  |  |  |  |  |  |  |  |  | 6.00 to 7.00 | > 7.00 | > 7.00 | > 7.00 | 6.00 to 7.00 | > 7.00 | 6.00 to 7.00
